Measurements reported in PMC4999848 (Toxins, 2016).
Several values for one entry are separate records, joined by “and”; a condition that tells them apart may be missing. Equal values may be shown once. Entries after “also recorded” stand apart in the source; their conditions may differ.

Assays:
T84 cells = assay: Deacetylation of 3/15ADON by T84 cells; type: in vitro ADME, human; settings: T84, 37 °C, substrate 100 μM
Method: (§1) A498, Caco-2, T84 and HepG2 cells were used as models of human renal, small intestinal, colonic and hepatic cells, respectively. Cells were routinely grown in culture media (Dulbecco’s Modified Eagle Medium (DMEM), DMEM:F12 mixture and Minimum Essential Media (MEM) for A498/Caco-2, T84 and HepG2 cells, respectively) supplemented with 10% fetal calf serum and 1% antibiotics (streptomycin–penicillin solution). Cells were grown in 25 cm^2 ventilated flask maintained at 37 °C in a 5% CO2 incubator. Cells were routinely passed using trypsin-EDTA solution. For deacetylation experiments, cells were seeded onto 6-well plates at an initial density of 200,000 cells/cm^2. HepG2 and A498 were used 3–4 days post-seeding when confluence was reached. Caco-2 and T84 cells were let to differentiate for 10–14 days post-seeding before being used. In all cases, cells were washed three times with sterile phosphate buffer saline PBS^++ (PBS containing 100 mg/L of calcium and magnesium salts) before deacetylation assay.
(§2) Stock solutions of DON, 3ADON and 15ADON at 2 mg/mL were prepared in absolute ethanol and stored at −20 °C. […] In all cases, aliquots of the reaction solution were collected immediately (i.e., “time zero” sample) or after the indicated time period at 37 °C and analyzed by HPLC. […]

pepsin = target: T1, pepsin (Sus scrofa, UniProt P00791); assay: Deacetylation of 3/15ADON by pepsin; type: in vitro ADME, porcine; settings: for Disappearance of 3/15ADON, specific activity: pepsin 1.6 mg/mL, HCl 10 mM pH 2.3, 37 °C, substrate 100 μM; for Contribution to total deacetylation activity: Pepsin: percentage of sum of specific activities (Figure 8)
T1 construct: purchased Sigma-Aldrich
T1 sequence (P00791 60-385): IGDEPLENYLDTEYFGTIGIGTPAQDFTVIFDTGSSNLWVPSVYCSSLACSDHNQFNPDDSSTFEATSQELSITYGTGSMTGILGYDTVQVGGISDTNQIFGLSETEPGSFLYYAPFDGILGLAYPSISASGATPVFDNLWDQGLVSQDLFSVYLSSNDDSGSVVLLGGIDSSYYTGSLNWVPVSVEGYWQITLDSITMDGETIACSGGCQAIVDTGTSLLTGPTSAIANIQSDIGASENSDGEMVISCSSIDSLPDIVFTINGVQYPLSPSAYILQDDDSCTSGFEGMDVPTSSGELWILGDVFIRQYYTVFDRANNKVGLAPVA
Method: Stock solutions of DON, 3ADON and 15ADON at 2 mg/mL were prepared in absolute ethanol and stored at −20 °C. For deacetylation assay, 3- or 15ADON were incubated with cells, explants, bacteria or digestive enzymes after being diluted in PBS^++ at a final concentration of 100 μM. PBS^++ solution containing only ethanol (at 1.5% final concentration) or DON (at 100 μM) were used in parallel as negative and positive control, respectively. For cells and explants, deacetylation assay take place in 6-well plates, wells being filled with 2 mL of PBS^++ containing either ethanol, DON, 3- or 15ADON. For fecal bacteria and digestive enzyme assay, deacetylation assay was conducted in 2 mL Eppendorf tubes filled with 1.5 mL of PBS^++ containing either ethanol, DON, 3- or 15ADON. In vitro intestinal digestion by luminal enzymes was performed using porcine enzymes from Sigma-Aldrich and physiological conditions. Briefly, 3- or 15ADON were incubated with pepsin (at 1.6 mg/mL corresponding to 900 U/mL), trypsin (at 0.35 mg/mL corresponding to 6000 U/mL), pancreatic lipase (at 0.75 mg/mL corresponding to 18 U/mL) or pancreatin (at 1.23 mg/mL, lipase activity >10 U/mL, protease activity >100 U/mL, amylase activity >100 U/mL). Except for pepsin for which the digestion was conducted in HCl solution at 10 mM (pH 2.3), in vitro digestion was performed in PBS^++ (pH 7.4). Finally, deacetylation assay was also performed with commercial pooled S9 fractions from human liver, small intestine and kidneys as well as with pure recombinant human CES1 and CES2. S9 fractions and CES1/2 were used at 0.1 mg/mL and 5 μg/mL (corresponding to CES activity >20 U/mL), respectively. In all cases, aliquots of the reaction solution were collected immediately (i.e., “time zero” sample) or after the indicated time period at 37 °C and analyzed by HPLC. […] In all cases, the experiments were conducted in triplicate (n = 3).
Deacetylation was monitoring both in term of disappearance of 3- or 15ADON and formation of DON. Measurement of DON, 3ADON and 15ADON concentrations was performed by reversed-phase HPLC using Waters Alliance System equipped with a Waters 2690 XE separation module and a Waters 996 photodiode array detector (Waters, Saint Quentin Falavier, France). The separation was achieved by mean of a LiChroCart column (125 mm × 4 mm) packed with 5 μm RP-18 Purospher gel (Merck, Darmstadt, Germany) and equipped with a LiChroCart precolumn (4 mm × 4 mm) packed with the same material (Merck). The precolumn and column were placed in room temperature. […] Quantification was based on calibration with the corresponding standard using Millinium Software (Waters, Saint Quentin Falavier, France).

recombinant human CES2 = target: T2, recombinant human CES2 (Homo sapiens, UniProt O00748); assay: Deacetylation of 3/15ADON by recombinant CES2; type: in vitro ADME; set-up: purchased R&D Systems; settings: 5 μg/mL CES2, up to 24 h, data not shown
T2 sequence (O00748 27-559): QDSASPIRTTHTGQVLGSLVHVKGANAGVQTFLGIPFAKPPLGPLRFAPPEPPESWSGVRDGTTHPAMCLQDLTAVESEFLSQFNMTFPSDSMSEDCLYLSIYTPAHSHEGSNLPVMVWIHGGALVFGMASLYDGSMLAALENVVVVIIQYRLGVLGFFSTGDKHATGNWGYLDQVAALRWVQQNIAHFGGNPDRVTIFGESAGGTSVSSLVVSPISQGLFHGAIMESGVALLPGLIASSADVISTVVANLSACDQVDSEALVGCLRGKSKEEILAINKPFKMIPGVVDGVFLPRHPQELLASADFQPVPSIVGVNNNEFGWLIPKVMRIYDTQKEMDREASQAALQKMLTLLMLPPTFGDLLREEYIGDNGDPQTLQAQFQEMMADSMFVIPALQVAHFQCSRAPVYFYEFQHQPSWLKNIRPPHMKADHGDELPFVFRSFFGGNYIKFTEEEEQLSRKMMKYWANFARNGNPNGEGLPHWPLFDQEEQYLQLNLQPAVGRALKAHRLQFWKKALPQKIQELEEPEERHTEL
Method: Stock solutions of DON, 3ADON and 15ADON at 2 mg/mL were prepared in absolute ethanol and stored at −20 °C. For deacetylation assay, 3- or 15ADON were incubated with cells, explants, bacteria or digestive enzymes after being diluted in PBS^++ at a final concentration of 100 μM. PBS^++ solution containing only ethanol (at 1.5% final concentration) or DON (at 100 μM) were used in parallel as negative and positive control, respectively. For cells and explants, deacetylation assay take place in 6-well plates, wells being filled with 2 mL of PBS^++ containing either ethanol, DON, 3- or 15ADON. For fecal bacteria and digestive enzyme assay, deacetylation assay was conducted in 2 mL Eppendorf tubes filled with 1.5 mL of PBS^++ containing either ethanol, DON, 3- or 15ADON. In vitro intestinal digestion by luminal enzymes was performed using porcine enzymes from Sigma-Aldrich and physiological conditions. […] In all cases, aliquots of the reaction solution were collected immediately (i.e., “time zero” sample) or after the indicated time period at 37 °C and analyzed by HPLC. […]
Deacetylation was monitoring both in term of disappearance of 3- or 15ADON and formation of DON. […] Quantification was based on calibration with the corresponding standard using Millinium Software (Waters, Saint Quentin Falavier, France).

A498 cells = assay: Deacetylation of 3/15ADON by A498 cells; type: in vitro ADME, human
Method: as §1, §2

Compound	Disappearance of 3/15ADON, specific activity (T84 cells)	Disappearance of 3/15ADON, specific activity (pepsin) [pmol/min/mg]	Contribution to total deacetylation activity: Pepsin (pepsin) [%]	Deacetylation activity of CES2 on 3/15ADON (recombinant human CES2)	Activity of renal cells on 15ADON (A498 cells; in words)	Disappearance of 3/15ADON, specific activity (A498 cells; A498, 37 °C, substrate 100 μM)
CC(=O)OC[C@]12[C@H](O)C(=O)C(C)=C[C@H]1O[C@@H]1[C@H](O)C[C@@]2(C)[C@]12CO2 [15ADON, 15-acetyldeoxynivalenol]	98 pmol/min/mg and 98 ± 29 pmol/min/mg	40 ± 4.5	7	failed at observing any deacetylation activity; also recorded: unable to cause the deacetylation	virtually inactive	–
CC(=O)O[C@@H]1C[C@]2(C)[C@@]3(CO)[C@H](O)C(=O)C(C)=C[C@H]3O[C@H]1[C@@]21CO1 [3ADON, 3-acetyldeoxynivalenol]	80 pmol/min/mg and 80 ± 24 pmol/min/mg	34 ± 7.5	3	failed at observing any deacetylation activity; also recorded: unable to cause the deacetylation	–	79 pmol/min/mg and 79 ± 46 pmol/min/mg
